Data on three molecules can be found in ChEMBL document CHEMBL1201862, “PubChem BioAssay data set” (2004).

Test systems include T47D; OVCAR-4; SK-MEL-28; SF-295; SNB-75; UACC-62; MOLT-4; NCI/ADR-RES; Malme-3M; OVCAR-8; SK-OV-3; NCI-H226; SF-268; HT-29; EKVX; DU-145; HCT-116; BT-549; MDA-MB-231; SW-620.
What all share (experiment): NCI anticancer screen, dose series, 48 h

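In this assay, cells in 96-well plates receive the compound at five concentrations for 48 hours. Endpoints are linearly interpolated between the surrounding concentrations. GI50: concentration for 50% inhibition of growth.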 Activity calls are given as the source filed them. No stated cut-off is given here; in the data, active = GI50 up to about 1.1 µM and inactive = higher. Where only a bound is given, the exact number is not on record here.

As to `CC(=O)C(=Cc1ccc(C=C(C(C)=O)C(C)=O)cc1)C(C)=O`, the GI50 was 3.05 µM (inactive) with T47D; 1.9 µM (inactive) with OVCAR-4; 1.71 µM (inactive) with SK-MEL-28; 2.11 µM (inactive) with SF-295; 1.78 µM (inactive) in the assay on SNB-75; 1.65 µM (inactive) with UACC-62. For the same molecule, the GI50 in the assay with MOLT-4 was 0.244 µM (active); with NCI/ADR-RES it was 2.28 µM (inactive); in the assay on Malme-3M it was 2.01 µM (inactive); with OVCAR-8, 2.05 µM (inactive); in the assay with SK-OV-3, 6.07 µM (inactive); in the assay with NCI-H226, 3.23 µM (inactive). Further, the GI50 in the assay with SF-268 is 1.41 µM (inactive); in the assay on HT-29 it was 1.2 µM (inactive); in the assay on EKVX it was 5.31 µM (inactive); with DU-145, 3.81 µM (inactive); with HCT-116, 0.637 µM (active); in the assay on BT-549, 2.05 µM (inactive). Moreover, the GI50 in the assay with MDA-MB-231 was 1.97 µM (inactive); with SW-620 it was 0.611 µM (active).
For the molecule `Cc1cc(=O)n2nc(CSc3nnc(N)s3)sc2n1`, the GI50 in the assay with T47D, with OVCAR-4, in the assay on SK-MEL-28, in the assay on SF-295, in the assay with SNB-75 and in the assay with UACC-62 was > 100 µM (inactive) each time. In addition, the GI50 in the assay with MOLT-4, in the assay with NCI/ADR-RES, in the assay with Malme-3M, in the assay on OVCAR-8, in the assay on SK-OV-3 and with NCI-H226 was > 100 µM (inactive) each time. For the same molecule, the GI50 with SF-268, with HT-29, in the assay on EKVX, in the assay with DU-145, in the assay with HCT-116 and in the assay on BT-549 was > 100 µM (inactive) each time. Further, the GI50 in the assay on MDA-MB-231 and with SW-620 was > 100 µM (inactive) each time.
Consider `Cc1cccc2c1CC1(Cc3ccccc3C1=O)C2=O` (stereo not given), for which the GI50 in the assay on T47D is > 100 µM (inactive); in the assay on OVCAR-4 it was > 100 µM (inactive); in the assay on SK-MEL-28, > 100 µM (inactive); in the assay with SF-295, > 100 µM (inactive); in the assay on SNB-75, 77.4 µM (inactive); with UACC-62 it was 75.7 µM (inactive). For the same molecule, the GI50 was > 100 µM (inactive) with MOLT-4; > 100 µM (inactive) in the assay on NCI/ADR-RES; > 100 µM (inactive) with Malme-3M; > 100 µM (inactive) in the assay with OVCAR-8; 37.6 µM (inactive) in the assay with SK-OV-3; > 100 µM (inactive) in the assay on NCI-H226. For the same molecule, the GI50 is 87.1 µM (inactive) in the assay on SF-268; > 100 µM (inactive) with HT-29; > 100 µM (inactive) in the assay on EKVX; > 100 µM (inactive) in the assay on DU-145; > 100 µM (inactive) with HCT-116; 24.7 µM (inactive) in the assay on BT-549. For the same molecule, the GI50 in the assay on MDA-MB-231 and with SW-620 was > 100 µM (inactive) throughout.
